Reference: the supplement of paper PMC10307832

Experiments:
Assay in all cases: relative viability (nuclei count vs DMSO), 5 days (fraction); higher = more cells survive
[1] = compound: O[C@@H](COc1cccc2ncccc12)CN1CCN([C@@H]2c3ccccc3[C@@H]3[C@H](c4ccccc42)C3(F)F)CC1 [Zosuquidar] + O=C(c1cc(Cc2n[nH]c(=O)c3ccccc23)ccc1F)N1CCN(C(=O)C2CC2)CC1 [Olaparib] (partner 8 µM)
In short: (§1)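 Five library-drug doses in √10 steps were combined with a fixed anchor-drug dose, or a single drug was given alone, by pin tool to lung cancer cell lines in 1536-well plates the day after seeding. Nuclei were stained and counted after 5 days. Relative viability is the nuclei count in treated wells over that in vehicle wells, taken as the median of duplicate plates.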

[2] = compound: C1=CC(=CC=C1NC(=S)NNC2=C(C=C(C=C2[N+](=O)[O-])C(F)(F)F)[N+](=O)[O-])F [Kobe2602] + NC(=O)Nc1cc(-c2cccc(F)c2)sc1C(=O)N[C@H]1CCCNC1 [AZD7762] (partner 0.2 µM)
In short: as §1

[3] = compound: COc1cc2nccc(Oc3ccc(NC(=O)C4(C(=O)Nc5ccc(F)cc5)CC4)cc3)c2cc1OC [Cabozantinib] + NC(=O)Nc1cc(-c2cccc(F)c2)sc1C(=O)N[C@H]1CCCNC1 [AZD7762] (partner 0.2 µM)
In short: as §1

[4] = compound: C1=CC(=CC=C1NC(=S)NNC2=C(C=C(C=C2[N+](=O)[O-])C(F)(F)F)[N+](=O)[O-])F [Kobe2602] + Cc1nc(Nc2ncc(C(=O)Nc3c(C)cccc3Cl)s2)cc(N2CCN(CCO)CC2)n1 [Dasatinib] (partner 0.075 µM)
In short: as §1

Cell Line	relative viability ([1]; first compound 0.01 µM)	relative viability ([1]; first compound 0.03162 µM)	relative viability ([1]; first compound 0.3162 µM)	relative viability ([1]; first compound 1 µM)	relative viability ([2]; first compound 0.2 µM)	relative viability ([2]; first compound 0.6325 µM)	relative viability ([2]; first compound 2 µM)	relative viability ([2]; first compound 6.325 µM)	relative viability ([2]; first compound 20 µM)	relative viability ([3]; first compound 0.02 µM)	relative viability ([3]; first compound 0.06325 µM)	relative viability ([3]; first compound 0.2 µM)	relative viability ([3]; first compound 0.6325 µM)	relative viability ([3]; first compound 2 µM)	relative viability ([4]; first compound 0.2 µM)	relative viability ([4]; first compound 0.6325 µM)	relative viability ([4]; first compound 2 µM)	relative viability ([4]; first compound 6.325 µM)	relative viability ([4]; first compound 20 µM)	relative viability ([1]; first compound 0.1 µM)
NCI-H2085	0.706	0.809	0.736	0.751	0.931	1.01	0.986	0.87	0.943	1.08	1.06	0.766	0.768	0.727	0.262	0.261	0.24	0.238	0.23	
RERF-LC-KJ	0.802	0.985	1.01	0.855	0.883	0.973	1.02	0.881	0.894	0.811	1.06	0.963	0.946	1.01	0.769	0.714	0.652	0.556	0.405	0.878
NCI-H1355	0.677	0.709	0.826	0.809	0.744	0.7	0.744	0.676	0.815	0.703	0.919	0.83	0.754	0.746	0.647	0.737	0.683	0.664	0.627	0.791
PC-14	0.26	0.319	0.307	0.179	0.39	0.445	0.348	0.351	0.308	0.323	0.415		0.406	0.354	0.253	0.253	0.259	0.211	0.139	0.205
NCI-H1755	0.873	0.88	0.92	0.867	0.416	0.446	0.642	0.407	0.544	0.449	0.494	0.471	0.39	0.547	0.408	0.407	0.359	0.408	0.437	0.778
NCI-H1651	0.181	0.194	0.2	0.179	0.442	0.447	0.462	0.41	0.429	0.391	0.544	0.444	0.438	0.39	0.596	0.362	0.429	0.402	0.37	0.169
NCI-H358	0.671	0.632	0.65	0.703	0.608	0.486	0.522	0.618	0.552	0.457	0.715	0.499	0.544	0.62	0.176	0.167	0.209	0.172	0.186	0.519
NCI-H1395	0.469	0.441	0.501	0.443	0.35	0.428	0.406	0.422	0.406	0.367	0.445	0.436	0.42	0.401	0.468	0.456	0.452	0.442	0.442	
HCC-15	0.717	0.725	0.72	0.747	1.03	1.2	1.02	1.17	1.43	1.22	1.27	1.13	1.26	1.19	0.586	0.658	0.555	0.574	0.494	0.799
PC-3 [JPC-3]	1.09	1.18	1.09	1.1	0.872	0.913	0.603	0.823	0.835	0.633	0.888		0.859	0.798	1.01	0.949	0.996	0.944	0.99	0.873
HOP-62	0.461	0.548	0.665	0.384	0.635	0.529	0.667	0.447	0.537	0.629	0.798	0.633	0.441	0.428	0.646	0.69	0.593	0.689	0.721	0.485
NCI-H460	0.41	0.403	0.421	0.39	0.64	0.756	0.681	0.652	0.56	0.633	0.801	0.68	0.623	0.63	0.504	0.518	0.507	0.49	0.575	0.32
NCI-H1793	0.971		1.01	0.758	0.654	0.352	0.641	0.287	0.539	0.413	0.625		0.579	0.17	0.367	0.4	0.361	0.397	0.398	
NCI-H727	0.72	0.772	0.746	0.7	0.57	0.519	0.532		0.644	0.509	0.796	0.661	0.539	0.651	0.376	0.384	0.342	0.484	0.392	
NCI-H838	0.758	0.74	0.825	0.847	0.918	1.01	0.874	0.915	0.898	1	0.74	0.908	0.93	0.866	0.264	0.309	0.249	0.291	0.289	0.814
NCI-H1734	0.614	0.674	0.655	0.646	0.554	0.656	0.586	0.549	0.503	0.522	0.655	0.563	0.575	0.544	0.425	0.543	0.432	0.478	0.468	0.613

Cell Line	relative viability ([1]; first compound 0.01 µM)	relative viability ([1]; first compound 0.03162 µM)	relative viability ([1]; first compound 0.3162 µM)	relative viability ([1]; first compound 1 µM)	relative viability ([2]; first compound 0.2 µM)	relative viability ([2]; first compound 0.6325 µM)	relative viability ([2]; first compound 2 µM)	relative viability ([2]; first compound 6.325 µM)	relative viability ([2]; first compound 20 µM)	relative viability ([3]; first compound 0.02 µM)	relative viability ([3]; first compound 0.06325 µM)	relative viability ([3]; first compound 0.2 µM)	relative viability ([3]; first compound 0.6325 µM)	relative viability ([3]; first compound 2 µM)	relative viability ([4]; first compound 0.2 µM)	relative viability ([4]; first compound 0.6325 µM)	relative viability ([4]; first compound 2 µM)	relative viability ([4]; first compound 6.325 µM)	relative viability ([4]; first compound 20 µM)	relative viability ([1]; first compound 0.1 µM)
EKVX	0.854	0.833	0.913	0.847	0.724	0.701	0.736	0.722	0.865	0.693	0.856	0.558	0.703	0.763	0.6	0.578	0.513	0.474	0.454	
NCI-H647	0.564	0.519	0.674	0.566	0.681	0.645	0.423	0.532	0.454	0.44	0.77	0.427	0.594	0.4	0.244	0.338	0.158	0.17	0.2	0.559
NCI-H2342	0.459	0.544	0.501	0.439	0.47	0.448	0.704	0.461	0.655	0.401	0.69	0.624	0.535	0.415	0.285	0.323	0.367	0.303	0.333	0.421
LOU-NH91	0.845	0.904	0.97	0.873	0.739	0.792	0.717	0.758	0.716	0.637	0.862	0.703	0.752	0.768	0.506	0.596	0.476	0.535	0.617	0.728
NCI-H1437	0.591	0.646	0.604	0.662	1.17	1.14	1.11	1.05	1.02	1.16	1.18	1.19	1.21	1.04	0.498	0.431	0.351	0.459	0.615	0.669
EPLC-272H	0.755	0.912	0.96	0.745	0.349	0.212	0.187	0.24	0.282	0.237	0.339	0.195	0.207	0.209	0.387	0.387	0.303	0.331	0.355	0.909
ChaGo-K-1	0.388	0.468	0.474	0.413	0.891	0.836	0.878	0.892	0.872	0.927	0.943	0.868	0.872	0.857	0.646	0.57	0.604	0.59	0.576	0.434
NCI-H1666	0.75	0.795	0.815	0.787	0.804	0.804	0.903	0.812	0.891	0.712	1.02	0.763	0.921	0.814	0.833	0.825	0.777	0.899	0.735	0.73
NCI-H441	0.708	0.61	0.482	0.525	1.1	1.11	1.13	1.13	1.06	1.64	1.43	1.1	1.44	0.826	0.66	0.606	0.71	0.699	0.621	0.738
NCI-H23	0.328		0.319	0.336	0.332	0.312	0.217	0.197	0.182		0.312	0.248	0.261	0.241	0.697	0.879	0.776	0.817	1.02	0.362
LU99A	0.239	0.264	0.273	0.254	0.356	0.381	0.31	0.279	0.356	0.292	0.376	0.411	0.279	0.397	0.427	0.461	0.433	0.525	0.615	0.285
NCI-H2126	0.909	0.868	0.922	0.917	1.07	1.01	1.09	1.08	0.988	0.901	1.03	0.941	0.988	1.07	0.57	0.557	0.522	0.446	0.475	0.849
LXF-289	1.01	1.03	1.09	1	1.06	1.08	1.08	1.06	1.08	1.15	1.07	1.13	1.09	1.06	0.253	0.23	0.248	0.208	0.245	1.09
BEN	1.15	0.953	1.02	0.97	0.74	0.73	0.74	0.651	0.691	0.624	0.891	0.746	0.773	0.59	0.322	0.353	0.395	0.303	0.324	0.883
LCLC-97TM1	0.307	0.453	0.335	0.515	0.364	0.303	0.341	0.279	0.37		0.305	0.285	0.195	0.304	0.886	0.759	0.705	0.937	0.802	
NCI-H1993	0.949	1.01	1.19	1.05	0.812	0.847	0.611	0.698	0.688	0.589	0.556	0.513	0.461	0.56	0.575	0.501	0.544	0.532	0.607	
